One substance from PMC10732398 (PLOS Pathogens, 2023) can be followed below.

For this assay, the system named is ⍺4β7 transfected 293T cells. Kind of assay: Flow cytometry: staining of 293T cells co-transfected with ⍺4 and β7 expression vectors. The format is binding. As to conditions: PE-labelled ligand, Fig 1C. The text has this:
The FRET/FLIM results described above indicate a direct interaction between CD4 and ⍺4β7. […] To this end we employed a fluorescently labelled soluble dodecameric CD4 Ig fusion protein, termed D1D2-Ig⍺tp, that includes the two N-terminal Ig-like domains of CD4 (D1D2, aa 1–180), followed by IgG1 CH2 and CH3 domains, followed by the 18 aa tail-piece domain of IgA (⍺tp). In this oligomer, 12 D1D2-Igs are arranged in a disulphide linked daisy-chain (Fig 1A). Primary CD4^+ T cells, some of which express ⍺4β7, were reacted with D1D2-Ig⍺tp and analyzed by flow-cytometry. A second oligomeric Ig fusion protein, MicA-Ig⍺tp, which includes the two N-terminal domains of MicA, was employed as a specificity control. […] MAdCAM-Ig was employed as a positive control. […] We conclude that an oligomeric soluble CD4 that includes only its two N-terminal domains can bind to ⍺4β7 in a specific way.
Fig 1 Binding of soluble CD4 to ⍺4β7 on CD4^+ T cells. (A) Schematic of D1D2-Ig⍺tp. […] X-axis indicates geometric mean fluorescence intensity (gMFI). […]
Cells were stained with fluoresceine conjugated mAbs or recombinant proteins using standard procedures preceded by Fc receptor blocking with human IgG. […] Data were acquired using a FACSCanto II (BD Biosciences) and analyzed with FlowJo software (BD Biosciences). […]
On the technique in general: A flow cytometer gives signals particle by particle.

In the case of “MAdCAM-Ig: recombinant MAdCAM-1 Ig fusion, R&D Systems [reference compound]”, the “binding to ⍺4β7 transfected versus untransfected 293T cells (in words)” value is “bound preferentially to ⍺4β7 transfected cells”.
